Data reported in patent US20040147495A1, “Sapogenin derivatives, their synthesis and use, and methods based upon their use” (priority 2001, published 2004).

Tests used:
[1] = tested on: β2 adrenoceptors; experiment: CHO-β2/m3 co-transfected cell line: β2 adrenoceptor density ([3H]CGP); type: cell-based, Chinese hamster; details: day 5
Experimental: (§1) Chinese hamster ovary (CHO) cells expressing high levels of muscarinic receptor (˜2.2 pmol mg protein^−1) were plated on a 24 well plate, 1 day before the start of the experiment. The culture medium was replaced with medium containing vehicle (DMSO) or the compounds.
(§2) The cells were incubated for 2/3 days, then after a medium change, cells were incubated for a further 2/3 days. The cells were incubated with a saturating concentration of labelled N-methyl-scopolamine, ([^3H]NMS). Cells were washed with ice cold phosphate-buffered saline (PBS) (3×) and bound [^3H]NMS determined by solubilising receptors with RIPA buffer followed by liquid scintillation counting.
(§3) The results shown in FIG. 5 used a CHO cell line co-transfected to express both β2 adrenoceptors and m3 muscarinic receptors. To measure the β2 and m3 receptor density, both [^3H]NMS and [^3H]CGP were used.

[2] = tested on: m3 muscarinic receptors; experiment: CHO-β2/m3 co-transfected cell line: m3 receptor density ([3H]NMS); type: cell-based, Chinese hamster; details: day 5
Experimental: as §1, §2, §3

CC(=O)OC1CCC2(C)C(CCC3C2CCC2(C)C3CC3OC4(CCC(C)CO4)C(C)C32)C1 (centres unmarked) [epismilagenin acetate]
decrease in β2 adrenoceptors [1]: significantly prevented
density of m3 receptors [2]: did not significantly alter the density of m3 receptors
